Test system: B16-F1 mouse melanoma cells
Assay: B16 F1 melanoma cell based assay for melanogenesis (melanin content in media)
Conditions: for Melanin (% Control) Alone: 72 hours, absorbance at 530 nm, lower = more inhibition
Method: The ability to inhibit melanin production was assessed using B16 cells, a mouse melanoma cell line.
B16-F1 mouse melanoma cells (obtained from American Type Culture Collection, MD, USA) were maintained in 75 cm^2 culture flasks in RPMI 1640 medium supplemented with L-glutamine (4 mM) and 10% fetal bovine serum (FBS) at 37° C. in a water-saturated, 5% CO2 in air atmosphere. Sub-confluent B16 cells were seeded in 96 well microtiter plates at a density of 5×10^3 cells/well in 200 μl of DMEM containing 10% FBS and 1% penicillin/streptomycin without phenol red at 37° C. under 5% CO2. After 24 hours, the media was replaced with fresh DMEM media containing various compounds at designated concentrations. Cells were incubated for 72 hours at which time melanin was visible in the control well (dark color) where no testing compounds were added.
The amount of melanin produced for each well was quantified by assessing melanin released into the culture media. The pigment containing media from each well was transferred to a clean 96 well plate and the melanin content was quantified by reading the absorbance at 530 nm. Melanin content in each well was calculated as a percent of the control where cells were maintained in DMEM medium or solvent control.
Melanin content in the media was expressed as percent of control, therefore the lower the value is, the more inhibition resulted from the tested compounds.

CC(O)C(=O)O (racemic) [DL-lactic acid]
inhibitory effects on melanin production (B16 cell assay, dose-dependent): strong inhibitory effects
Melanin (% Control) Alone (co-active alone at 2 mM): 103.8 ± 20.5 % Control
Melanin (% Control) Alone (co-active alone at 5 mM): 98 ± 19.3 % Control
Melanin (% Control) Alone (co-active alone at 10 mM): 79 ± 16.8 % Control
Melanin (% Control) Alone (co-active alone at 15 mM): 33.5 ± 7.9 % Control

N[C@@H](Cc1ccccc1)C(=O)O [L-phenylalanine]
Melanin (% Control) Alone (co-active alone at 2 mM): 84.9 ± 16.9 % Control
Melanin (% Control) Alone (co-active alone at 5 mM): 48.3 ± 10 % Control
Melanin (% Control) Alone (co-active alone at 10 mM): 10 ± 2.7 % Control
Melanin (% Control) Alone (co-active alone at 15 mM): 49.7 ± 9.9 % Control

NC(=O)c1cccnc1 [Niacinamide]
Melanin (% Control) Alone (co-active alone at 2 mM): 94.8 ± 19 % Control
Melanin (% Control) Alone (co-active alone at 5 mM): 83.9 ± 16.7 % Control
Melanin (% Control) Alone (co-active alone at 10 mM): 66.1 ± 13 % Control
Melanin (% Control) Alone (co-active alone at 15 mM): 50.3 ± 10.2 % Control

Source: US20020106384A1, “Cosmetic compositions and methods for lightening the skin” (priority 1999, published 2002)
